Experiment: Example 2: safety (AE, SAE, relative dose intensity)
Format: in vivo
Method: All responses were assessed by the study site investigators.

SMILES: CC(C)NC(=O)COc1cccc(-c2nc(Nc3ccc4[nH]ncc4c3)c3ccccc3n2)c1 [Belumosudil, 2-{3-[4-(1H-indazol-5-ylamino)-2-quinazolinyl]phenoxy}-N-(propan-2-yl) acetamide]
- ALT increased (200 mg daily (n = 66)): 4 (6) n (%)
- AST increased (200 mg daily (n = 66)): 5 (8) n (%)
- Any AE (200 mg daily (n = 66)): 65 (99) n (%)
- Bilirubin conjugated increased (200 mg daily (n = 66)): 1 (2) n (%)
- Blood alkaline phosphatase increased (200 mg daily (n = 66)): 4 (6) n (%)
- Cough, all grades (200 mg daily (n = 66)): 20 (30) n (%)
- Deaths (200 mg daily (n = 66)): 8 (12) n (%)
- Diarrhea, all grades (200 mg daily (n = 66)): 23 (35) n (%)
- Drug-related AEs (200 mg daily (n = 66)): 49 (74) n (%)
- Drug-related SAEs (200 mg daily (n = 66)): 5 (8) n (%)
- Dyspnea, all grades (200 mg daily (n = 66)): 21 (32) n (%)
- Fatigue, all grades (200 mg daily (n = 66)): 30 (46) n (%)
- GGT increased (200 mg daily (n = 66)): 6 (9) n (%)
- Grade ≥3 AEs (200 mg daily (n = 66)): 37 (56) n (%)
- Headache, all grades (200 mg daily (n = 66)): 13 (20) n (%)
- Hyperglycemia, Grade ≥3 (200 mg daily (n = 66)): 3 (5) n (%)
- Hypertension, Grade ≥3 (200 mg daily (n = 66)): 4 (6) n (%)
- Hypoalbuminemia (200 mg daily (n = 66)): 2 (3) n (%)
- LFT increased (200 mg daily (n = 66)): 1 (2) n (%)
- Liver-related AEs (200 mg daily (n = 66)): 12 (18) n (%)
- Muscle spasms, all grades (200 mg daily (n = 66)): 13 (20) n (%)
- Nausea, all grades (200 mg daily (n = 66)): 23 (35) n (%)
- Peripheral edema, all grades (200 mg daily (n = 66)): 17 (26) n (%)
- Pneumonia, Grade ≥3 (200 mg daily (n = 66)): 6 (9) n (%)
- SAEs (200 mg daily (n = 66)): 27 (41) n (%)
- Transaminases increased (200 mg daily (n = 66)): 1 (2) n (%)
- Upper respiratory tract infection, all grades (200 mg daily (n = 66)): 17 (26) n (%)
- Vomiting, all grades (200 mg daily (n = 66)): 18 (27) n (%)
- ALT increased (200 mg twice daily (n = 66)): 7 (11) n (%)
- AST increased (200 mg twice daily (n = 66)): 8 (12) n (%)
- Any AE (200 mg twice daily (n = 66)): 66 (100) n (%)
- Bilirubin conjugated increased (200 mg twice daily (n = 66)): 0 n (%)
- Blood alkaline phosphatase increased (200 mg twice daily (n = 66)): 6 (9) n (%)
- Cough, all grades (200 mg twice daily (n = 66)): 17 (26) n (%)
- Deaths (200 mg twice daily (n = 66)): 6 (9) n (%)
- Diarrhea, all grades (200 mg twice daily (n = 66)): 21 (32) n (%)
- Drug-related AEs (200 mg twice daily (n = 66)): 40 (61) n (%)
- Drug-related SAEs (200 mg twice daily (n = 66)): 2 (3) n (%)
- Dyspnea, all grades (200 mg twice daily (n = 66)): 12 (18) n (%)
- Fatigue, all grades (200 mg twice daily (n = 66)): 20 (30) n (%)
- GGT increased (200 mg twice daily (n = 66)): 10 (15) n (%)
- Grade ≥3 AEs (200 mg twice daily (n = 66)): 34 (52) n (%)
- Headache, all grades (200 mg twice daily (n = 66)): 18 (27) n (%)
- Hyperglycemia, Grade ≥3 (200 mg twice daily (n = 66)): 3 (5) n (%)
- Hypertension, Grade ≥3 (200 mg twice daily (n = 66)): 4 (6) n (%)
- Hypoalbuminemia (200 mg twice daily (n = 66)): 2 (3) n (%)
- LFT increased (200 mg twice daily (n = 66)): 0 n (%)
- Liver-related AEs (200 mg twice daily (n = 66)): 19 (29) n (%)
- Muscle spasms, all grades (200 mg twice daily (n = 66)): 13 (20) n (%)
- Nausea, all grades (200 mg twice daily (n = 66)): 18 (27) n (%)
- Peripheral edema, all grades (200 mg twice daily (n = 66)): 13 (20) n (%)
- Pneumonia, Grade ≥3 (200 mg twice daily (n = 66)): 4 (6) n (%)
- SAEs (200 mg twice daily (n = 66)): 23 (35) n (%)
- Transaminases increased (200 mg twice daily (n = 66)): 1 (2) n (%)
- Upper respiratory tract infection, all grades (200 mg twice daily (n = 66)): 18 (27) n (%)
- Vomiting, all grades (200 mg twice daily (n = 66)): 10 (15) n (%)
- ALT increased (Total (N = 132)): 11 (8) n (%)
- AST increased (Total (N = 132)): 13 (10) n (%)
- Any AE (Total (N = 132)): 131 (99) n (%)
- Bilirubin conjugated increased (Total (N = 132)): 1 (1) n (%)
- Blood alkaline phosphatase increased (Total (N = 132)): 10 (8) n (%)
- Cough, all grades (Total (N = 132)): 37 (28) n (%)
- Diarrhea, all grades (Total (N = 132)): 44 (33) n (%)
- Drug-related AEs (Total (N = 132)): 89 (67) n (%)
- Drug-related SAEs (Total (N = 132)): 7 (5) n (%)
- Dyspnea, all grades (Total (N = 132)): 33 (25) n (%)
- Fatigue, all grades (Total (N = 132)): 50 (38) n (%)
- GGT increased (Total (N = 132)): 16 (12) n (%)
- Grade ≥3 AEs (Total (N = 132)): 71 (54) n (%)
- Headache, all grades (Total (N = 132)): 31 (24) n (%)
- Hyperglycemia, Grade ≥3 (Total (N = 132)): 6 (5) n (%)
- Hypertension, Grade ≥3 (Total (N = 132)): 8 (6) n (%)
- Hypoalbuminemia (Total (N = 132)): 4 (3) n (%)
- LFT increased (Total (N = 132)): 1 (1) n (%)
- Liver-related AEs (Total (N = 132)): 31 (24) n (%)
- Muscle spasms, all grades (Total (N = 132)): 26 (20) n (%)
- Nausea, all grades (Total (N = 132)): 41 (31) n (%)
- Peripheral edema, all grades (Total (N = 132)): 30 (23) n (%)
- Pneumonia, Grade ≥3 (Total (N = 132)): 10 (8) n (%)
- SAEs (Total (N = 132)): 50 (38) n (%)
- Transaminases increased (Total (N = 132)): 2 (2) n (%)
- Upper respiratory tract infection, all grades (Total (N = 132)): 35 (27) n (%)
- Vomiting, all grades (Total (N = 132)): 28 (21) n (%)
- Deaths (Total (N = 132), six died during LTFU (>28 days after last dose)): 14 (11) n (%)
- Discontinued because of overall AEs (in vivo): 21%
- Discontinued because of possible drug-related AEs (in vivo): 12%
- Grade 3 or 4 hyperglycemia (in vivo): 5%
- Grade 3 or 4 hypertension (in vivo): 6%
- Grade 3 or 4 pneumonia (in vivo): 8%
- Grade ≥3 anemia (in vivo): 3%
- Grade ≥3 cytopenias (in vivo): < 4%
- Grade ≥3 neutropenia (in vivo): 2%
- Grade ≥3 thrombocytopenia (in vivo): 2%
- Increased GGT (liver-related AE) (in vivo): 12%
- Median RDI (in vivo): 99.7%
- SAE pneumonia, subjects (in vivo): 7%
- Subjects who died during the study (in vivo): Fourteen
- Subjects who received an RDI >95% (in vivo): Eighty-one
- Subjects with >1 SAE (in vivo): Thirty eight
- Subjects with increased liver function tests (LFTs) (in vivo): Twenty-four
- Cases of Epstein-Barr viremia that required treatment (unrelated to belumosudil): 1 case
- Cases of cytomegalovirus (CMV) reactivation (unrelated to belumosudil): 1 case
- Cases of cytomegalovirus (CMV) reactivation (unrelated to belumosudil, listed as belumosudil): one
